{
  "source": "patent US20190055517A1",
  "about": "“Cell Line of M2c Macrophage and Its Applications” (National Pingtung University of Science and Technology, priority 2017, published 2019)",
  "molecules": {"B1": {"name": "IL-4: cytokine, 10 ng/ml, 24 hours, comparison drug to induce differentiation (protein, UniProt P05112 25-153, looked up)", "Interleukin-4": "HKCDITLQEIIKTLNSLTEQKTLCTELTVTDIFAASKNTTEKETFCRAATVLRQFYSHHEKDTRCLGATAQQFHRHKQLIRFLKRLDRNLWGLAGLNSCPVKEANQSTLENFLERLKTIMREKYSKCSS"}, "B2": {"name": "macrophage colony-stimulating factor (protein, UniProt P09603 33-554, looked up)", "Macrophage colony-stimulating …": "EEVSEYCSHMIGSGHLQSLQRLIDSQMETSCQITFEFVDQEQLKDPVCYLKKAFLLVQDIMEDTMRFRDNTPNAIAIVQLQELSLRLKSCFTKDYEEHDKACVRTFYETPLQLLEKVKNVFNETKNLLDKDWNIFSKNCNNSFAECSSQDVVTKPDCNCLYPKAIPSSDPASVSPHQPLAPSMAPVAGLTWEDSEGTEGSSLLPGEQPLHTVDPGSAKQRPPRSTCQSFEPPETPVVKDSTIGGSPQPRPSVGAFNPGMEDILDSAMGTNWVPEEASGEASEIPVPQGTELSPSRPGGGSMQTEPARPSNFLSASSPLPASAKGQQPADVTGTALPRVGPVRPTGQDWNHTPQKTDHPSALLRDPPEPGSPRISSLRPQGLSNPSTLSAQPQLSRSHSSGSVLPLGELEGRRSTRDRRSPAEPEGGPASEGAARPLPRFNSVPLTDTGHERQSEGSFSPQLQESVFHLLVPSVILVLLAVGGLLFYRWRRRSHQEPQRADSPLEQPEGSPLTQDDRQVELPV", "notes": "50 ng/ml, induces M2 macrophage polarization of monocytes"}},
  "key": {"[1]": {"tested_on": "murine M2 macrophage", "test": "Macrophage phenotype by flow cytometry (CD86, CD206) after drug-induced differentiation", "format": "cell-based", "conditions": "conditions of chart 2, p<0.05, FIG. 3", "method": "(§1) Use PBS containing 0.5% BSA to flush out bone marrow cells from murine (C57BL/6J, 8-20 weeks, Taiwan National Laboratory Animal Center) femur, then use Ficoll-Hypaque (GE healthcare, SWEDEN) to isolate monocytes.\n(§2) Then, incubate 2×10^6 monocytes in 50 ng/ml M-CSF contained RPMI 1640 (10% FCS) medium under 37° c., 5% CO2 for seven days to induce M2 macrophage polarization. On the eighth day, collect 2×10^5 M2 macrophage and incubate them in RPMI 1640 (10% FCS) medium with Baicalin (50 μM, Tokyo Chemical Industry, JAPAN) for 24 hours. Baicalin will induce M2 macrophage to differentiate into M2C macrophage.\nEmbodiment 1 is prepared by the steps described above, isolate monocytes from murine bone marrow and use M-CSF to induce differentiation of M2 macrophage, and then use baicalin to induce M2C macrophage polarization. In comparison 1, incubate murine M2 macrophage in RPMI 1640 (10% FCS) containing LPS (lipopolysaccharide, 1 μg/ml, Sigma-Aldrich) for 2 hours. In comparison 2, incubate murine M2 macrophage in medium containing IL-4 ([…] Guidance System, Cambridge, UK) for 24 hours. The control group of M2 macrophage is incubated in RPMI 1640 (10% FCS) without any drugs. The conditions are shown below in chart 2.\nAfter induced differentiation is complete, use flow cytometry to analyse the macrophage phenotype, in the meantime, also use real time PCR (qPCR) to observe mRNA expression level of each gene.\n(§3) FIG. 2˜4 show results of macrophage phenotypes analysed by flow cytometry."}, "[2]": {"tested_on": "murine M2 macrophage", "test": "Phagocytosis of FITC-Latex beads with PE-anti-MERTK staining (flow cytometry, fluorescence microscopy)", "format": "cell-based", "conditions": "fluorescence microscope, PE-MERTK, FIG. 18", "method": "In this example, experiment was performed to evaluate the effect of baicalin induced differentiated […] macrophages in promoting phagocytosis. Treatment conditions of drugs in each group is listed in chart 2, and control group is cultured in RPMI1640 (10% FCS) without any drugs. After treatment, collect 5×10^5 treated cells respectively and add 50 μl FITC-Latex beads (Phagocytosis assay kit (IgG FITC), Cayman Chemical, USA.) to perform phagocytosis experiment for 24 hours, and then use PE-anti-MERTK antibody to mark the cells and observe the fluorescence expression with flow cytometry."}, "[3]": {"tested_on": "Raw264.7 macrophages", "test": "H2O2 induction of apoptotic cells (annexin-V / 7-AAD flow cytometry)", "format": "cell-based, murine", "conditions": "1.5 mM H2O2 versus 0.5 and 1 mM, 12 hours, FIG. 19", "method": "Inducing apoptotic cells: minor changes were made from steps of obtaining apoptotic cells based on previous studies (Piao et al., 2011 and Fong et al 2007), detailed steps comprising: culture 1.5×10^6 RAW264.7 macrophages with DMEM medium containing 10% FBS in incubator (37° C., 5% CO2). After culturing overnight, treat with 0.5, 1, 1.5 mM H2O2 respectively in DMEM for 12 hours. Next, remove the DMEM medium containing H2O2 and wash the cells with PBS buffer, then use micropipette to transfer cells to 15 ml centrifuge tube and centrifuge cells at 4° C. for 5 mins at rotating speed of 500×g. Remove the supernatant and resuspend the cells with 95 μl […]. Following that, dye the cells with fluorescence marker annexin-V and 7-AAD (BD Bioscience) for 20 mins on ice, avoiding light. After marking the cells, use flow cytometry (FACS BD ARIA II) to detect fluorescence performance. Analysed by software CellQuest (BD Bioscience). If the cells were positive for annexin-V and negative for 7-AAD, the cells will be identified as early apoptotic cells; if the cells were positive for annexin-V and positive for 7-AAD, the cells would be identified as late apoptotic cells."}, "[4]": {"tested_on": "monocytes from murine bone marrow", "test": "M-CSF induced M2 polarization of bone marrow monocytes (flow cytometry CD11b, CD206, CD80)", "format": "cell-based", "conditions": "50 ng/ml M-CSF, treated for 7 days, p<0.05, FIG. 2", "method": "as §1, §2, §3"}},
  "data": [
    {"molecule": "lipopolysaccharide [LPS, reference compound]", "values": [
      {"measurement": "percentage of M1 macrophage (CD86+CD206-)", "setting": "[1]", "result": "higher"},
      {"measurement": "MERTK fluorescence distribution of cells after phagocytosing FITC-Latex beads", "setting": "[2]", "result": "comparatively weaker"}
    ]},
    {"molecule": "OO", "note": "[Embodiment H2O2, H2O2]", "values": [
      {"measurement": "percentage of apoptotic cells", "setting": "[3]", "result": "higher percentage of apoptotic cells"}
    ]},
    {"molecule": "B1", "values": [
      {"measurement": "percentage of M2 macrophage (CD86-CD206+)", "setting": "[1]", "result": "higher"}
    ]},
    {"molecule": "B2", "values": [
      {"measurement": "percentage of cells expressing CD11b and CD206 at the same time (CD11b+CD206+)", "setting": "[4]", "result": "highest percentage"}
    ]}
  ]
}
